The record followed here is US12466821B2 (Novartis AG, priority 2018, dated 2025).

The structures appear in SMILES notation.

The target in test [1] is human CMV DNA polymerase UL54 (Human cytomegalovirus (strain AD169) (HHV-5) (Human herpesvirus 5), UniProt P08546). Put plainly: CMV polymerase biochemical assay (molecular beacon-based). The essentials:
(§1)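 Readout was beacon fluorescence (ex 480, em 535 nm), used to derive IC50. Each dNTP was at 1.25 uM, with 200 nM primer and 100 nM beacon, after a 30-min RT inhibitor preincubation. Enzyme was 625 pM for HSV UL30 (20 min RT reaction) or 100 pM for CMV UL54 (60 min RT), both sf9-expressed MBP fusions, in pH 7.5 Tris buffer with MgCl2.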

Test [2] concerns the target human HSV DNA polymerase UL30 (Human herpesvirus 1 (strain 17) (HHV-1) (Human herpes simplex virus 1), UniProt P04293). As to the kind of experiment: HSV polymerase biochemical assay (molecular beacon-based). Put shortly:
as §1

In test [3] the test system is Luciferase-encoding HCMV, AD169 strain. As to the kind of experiment: CMV Luciferase assay (cellular herpesvirus replication). The class given is cell-based. The settings on record: Human betaherpesvirus 5, AD169, read-out: CMV-Luc Cellular EC50. The essentials: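 Neonatal human dermal fibroblasts were pretreated 1 h with compound (final 0.0159–50 μM or 0.00318–10 μM, 0.5% DMSO), then infected at MOI 1 with AD169 carrying pp28-promoter luciferase. After 72 h at 37 °C, Renilla-Glo luminescence normalized to no-virus and virus-only controls; EC50 by 4-parameter logistic model.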

A word on the IC50: it is the midpoint of a concentration-inhibition curve. For orientation: EC50 means the midpoint of the concentration-response curve. Turning to `N#Cc1ccc(CNC(=O)c2cc(F)c3n(c2=O)CCN(CC2(S(=O)(=O)C4CC4)CC2)C3=O)cc1` [Example 161], the values for the IC50 in test [1] and in test [2] were 1.5 nM and 57.1 nM, respectively. Moreover, the EC50 in test [3] worked out at 59.9 nM.

As for `N#Cc1ccc(CNC(=O)c2cc(F)c3n(c2=O)CCN(CC2(S(=O)(=O)C4CC4)CC2)C3=O)cc1F` [Example 162], the 50% inhibitory concentration (IC50) in test [1] came to 1.9 nM; in test [2], 79.6 nM. Also, in test [3], the EC50 came out at 41.3 nM.

`O=C(NCc1ccc(Cl)cc1)c1cc(F)c2n(c1=O)CCN(CCN1CCCS1(=O)=O)C2=O` [Example 163]: the IC50 in test [1] amounted to 23.2 nM; in test [2], 141 nM. Besides, in test [3], the half-maximal effective concentration (EC50) was 370 nM.

`CS(=O)(=O)C1(CN2CCn3c(c(F)cc(C(=O)NCc4ccc(C#N)cc4)c3=O)C2=O)CC1` [Example 164]: the IC50 in test [1] is 13 nM; in test [2], 305 nM. Besides, the EC50 in test [3] turned out to be 249 nM.

With `CN(C1(CN2CCn3c(c(F)cc(C(=O)NCc4ccc(Cl)cc4)c3=O)C2=O)CC1)S(C)(=O)=O` [Example 166], the IC50 in test [1] came to 173 nM; in test [2], 7700 nM. Besides, the concentration for a half-maximal effect (EC50) in test [3] was 10000 nM.

For the compound `COC1(CN2CCn3c(ccc(C(=O)NCc4ccc(Cl)cc4)c3=O)C2=O)CC1` [Example 171, N-(4-chlorobenzyl)-2-((1-methoxycyclopropyl)methyl)-1,6-dioxo-1,3,4,6-tetrahydro-2H-pyrido[1,2-a]pyrazine-7-carboxamide], the half-maximal inhibitory concentration (IC50) in test [1] was 72.9 nM; in test [2] it was 2800 nM. Moreover, the EC50 in test [3] turned out to be 637 nM.

For the compound `CN(C)C(=O)OC1(CN2CCn3c(ccc(C(=O)NCc4ccc(Cl)cc4)c3=O)C2=O)CC1` [Example 172, 1-((7-((4-chlorobenzyl)carbamoyl)-1,6-dioxo-1,3,4,6-tetrahydro-2H-pyrido[1,2-a]pyrazin-2-yl)methyl)cyclopropyl dimethyl carbamate], the values for the IC50 in test [1] and in test [2] were 2400 nM and 71000 nM, respectively. The EC50 in test [3] is 10000 nM.

Turning to `CS(=O)(=O)CC1(CN2CCn3c(ccc(C(=O)NCc4ccc(Cl)cc4)c3=O)C2=O)CC1` [Example 173, N-(4-chlorobenzyl)-2-((1-((methylsulfonyl)methyl)cyclopropyl)methyl)-1,6-dioxo-1,3,4,6-tetrahydro-2H-pyrido[1,2-a]pyrazine-7-carboxamide], the results for the IC50 in test [1] and in test [2] were 20.6 nM and 232 nM, respectively. Besides, the 50% effective concentration (EC50) in test [3] amounted to 364 nM.

Consider `CN(C1(CN2CCn3c(ccc(C(=O)NCc4ccc(Cl)cc4)c3=O)C2=O)CC1)S(C)(=O)=O` [Example 174], for which the IC50 in test [1] worked out at 64.3 nM; in test [2] it was 2680 nM. Further, the EC50 in test [3] worked out at 4200 nM.

As for `CC(C)(C(=O)O)S(=O)(=O)C1(CN2CCn3c(ccc(C(=O)NCc4ccc(Cl)cc4)c3=O)C2=O)CC1` [Example 175, 2-((1-((7-((4-chlorobenzyl)carbamoyl)-1,6-dioxo-1,3,4,6-tetrahydro-2H-pyrido[1,2-a]pyrazin-2-yl)methyl)cyclopropyl)sulfonyl)-2-methylpropanoic acid], the IC50 is 0.8 nM in test [1] and 24.4 nM in test [2]. Also, the EC50 in test [3] amounted to 6050 nM.

In the case of `CC(C)(C(=O)NS(C)(=O)=O)S(=O)(=O)C1(CN2CCn3c(ccc(C(=O)NCc4ccc(Cl)cc4)c3=O)C2=O)CC1` [Example 176, N-(4-chlorobenzyl)-2-((1-((2-methyl-1-(methylsulfonamido)-1-oxopropan-2-yl)sulfonyl)cyclopropyl)methyl)-1,6-dioxo-1,3,4,6-tetrahydro-2H-pyrido[1,2-a]pyrazine-7-carboxamide], the 50% inhibitory concentration (IC50) stood at 4.6 nM in test [1] and 61.9 nM in test [2]. Moreover, the EC50 in test [3] came to 7230 nM.

In the case of `CC(C)(C(N)=O)S(=O)(=O)C1(CN2CCn3c(ccc(C(=O)NCc4ccc(Cl)cc4)c3=O)C2=O)CC1` [Example 177, 2-((1-((1-amino-2-methyl-1-oxopropan-2-yl)sulfonyl)cyclopropyl)methyl)-N-(4-chlorobenzyl)-1,6-dioxo-1,3,4,6-tetrahydro-2H-pyrido[1,2-a]pyrazine-7-carboxamide], the IC50 in test [1] worked out at 1.5 nM; in test [2], 18.1 nM. Further, the EC50 in test [3] is 12.4 nM.

Turning to `CC(C)(c1ncno1)S(=O)(=O)C1(CN2CCn3c(ccc(C(=O)NCc4ccc(Cl)cc4)c3=O)C2=O)CC1` [Example 178, 2-((1-((2-(1,2,4-oxadiazol-5-yl)propan-2-yl)sulfonyl)cyclopropyl)methyl)-N-(4-chlorobenzyl)-1,6-dioxo-1,3,4,6-tetrahydro-2H-pyrido[1,2-a]pyrazine-7-carboxamide], the IC50 came out at 0.3 nM in test [1] and 10 nM in test [2]. Further, the concentration giving a half-maximal response (EC50) in test [3] was 43.4 nM.

In the case of `CC(C)(c1ncno1)S(=O)(=O)C1(CN2CCn3c(ccc(C(=O)NCc4ccc(C#N)cc4)c3=O)C2=O)CC1` [Example 179], the IC50 stood at 0.4 nM in test [1] and 16.9 nM in test [2]. In addition, in test [3], the concentration for a half-maximal effect (EC50) was 125 nM.

As for `CC(C)(CO)S(=O)(=O)C1(CN2CCn3c(ccc(C(=O)NCc4ccc(Cl)cc4)c3=O)C2=O)CC1` [Example 180, N-(4-chlorobenzyl)-2-((1-((1-hydroxy-2-methylpropan-2-yl)sulfonyl)cyclopropyl)methyl)-1,6-dioxo-1,3,4,6-tetrahydro-2H-pyrido[1,2-a]pyrazine-7-carboxamide], the IC50 in test [1] stood at 0.2 nM; in test [2], 22.7 nM. Besides, the EC50 in test [3] is 6.2 nM.

Take `CC(C)(CN)S(=O)(=O)C1(CN2CCn3c(ccc(C(=O)NCc4ccc(Cl)cc4)c3=O)C2=O)CC1` [Example 181, 2-((1-((1-amino-2-methylpropan-2-yl)sulfonyl)cyclopropyl)methyl)-N-(4-chlorobenzyl)-1,6-dioxo-1,3,4,6-tetrahydro-2H-pyrido[1,2-a]pyrazine-7-carboxamide]: the values for the half-maximal inhibitory concentration (IC50) in test [1] and in test [2] were 1.1 nM and 37.4 nM, respectively. The EC50 in test [3] came to 5.1 nM.

Turning to `CC(C)(CO)S(=O)(=O)C1(CN2CCn3c(ccc(C(=O)NCc4ccc(Cl)nc4)c3=O)C2=O)CC1` [Example 182], the IC50 is 2.7 nM in test [1] and 38.6 nM in test [2]. Besides, the EC50 in test [3] turned out to be 48.3 nM.

Regarding `CC(C)(CO)S(=O)(=O)C1(CN2CCn3c(ccc(C(=O)NCc4ccc(C#N)nc4)c3=O)C2=O)CC1` [Example 183], the results for the IC50 in test [1] and in test [2] were 2.9 nM and 36.7 nM, respectively. For the same compound, the EC50 in test [3] worked out at 145 nM.

Take `CC(C)(CN)S(=O)(=O)C1(CN2CCn3c(ccc(C(=O)NCc4ccc(C#N)cc4)c3=O)C2=O)CC1` [Example 184]: the IC50 in test [1] is 3.9 nM; in test [2], 60.3 nM. In addition, the EC50 in test [3] was determined as 31.6 nM.

On to `CC(C)(C#N)S(=O)(=O)C1(CN2CCn3c(ccc(C(=O)NCc4ccc(Cl)cc4)c3=O)C2=O)CC1` [Example 185, N-(4-chlorobenzyl)-2-((1-((2-cyanopropan-2-yl)sulfonyl)cyclopropyl)methyl)-1,6-dioxo-1,3,4,6-tetrahydro-2H-pyrido[1,2-a]pyrazine-7-carboxamide], for which the concentration for half-maximal inhibition (IC50) in test [1] is 1.2 nM; in test [2] it was 29.5 nM. Also, in test [3], the EC50 stood at 18.9 nM.

Take `CC(C)(c1nnn[nH]1)S(=O)(=O)C1(CN2CCn3c(ccc(C(=O)NCc4ccc(Cl)cc4)c3=O)C2=O)CC1` [Example 186, 2-((1-((2-(1H-tetrazol-5-yl)propan-2-yl)sulfonyl)cyclopropyl)methyl)-N-(4-chlorobenzyl)-1,6-dioxo-1,3,4,6-tetrahydro-2H-pyrido[1,2-a]pyrazine-7-carboxamide]: the IC50 is 1.2 nM in test [1] and 20.5 nM in test [2]. Moreover, the concentration for a half-maximal effect (EC50) in test [3] turned out to be 6660 nM.

With `COCC(C)(C)S(=O)(=O)C1(CN2CCn3c(ccc(C(=O)NCc4ccc(C#N)cc4)c3=O)C2=O)CC1` [Example 187], the IC50 in test [1] turned out to be 0.4 nM; in test [2] it was 52.9 nM. The EC50 in test [3] turned out to be 14.9 nM.

For the compound `COC1(S(=O)(=O)C2(CN3CCn4c(ccc(C(=O)NCc5ccc(C#N)cc5)c4=O)C3=O)CC2)CC1` [Example 189], the 50% inhibitory concentration (IC50) in test [1] stood at 1.1 nM; in test [2] it was 59.8 nM. Besides, in test [3], the EC50 stood at 55.7 nM.

Turning to `COC1(S(=O)(=O)C2(CN3CCn4c(ccc(C(=O)NCc5ccc(C#N)c(F)c5)c4=O)C3=O)CC2)CC1` [Example 190], the values for the 50% inhibitory concentration (IC50) in test [1] and in test [2] were 1.4 nM and 66.5 nM, respectively. Further, the EC50 in test [3] came out at 47.8 nM.

Consider `CC(CN1CCn2c(ccc(C(=O)NCc3ccc(Cl)cc3)c2=O)C1=O)S(=O)(=O)C1CC1` (stereo not drawn) [Example 191], for which the results for the half-maximal inhibitory concentration (IC50) in test [1] and in test [2] were 76.5 nM and 5460 nM, respectively. The EC50 in test [3] was 3460 nM.

As to `CC(CN1CCn2c(ccc(C(=O)NCc3ccc(C#N)cc3)c2=O)C1=O)S(=O)(=O)C1CC1` (stereo not drawn) [Example 192], the 50% inhibitory concentration (IC50) was determined as 194 nM in test [1] and 3010 nM in test [2]. Moreover, the half-maximal effective concentration (EC50) in test [3] stood at 8050 nM.

Regarding `O=C(NCc1ccc(Cl)cc1)c1ccc2n(c1=O)CCN(CCS(=O)(=O)C1CC1)C2=O` [Example 193], the values for the IC50 in test [1] and in test [2] were 34.1 nM and 420 nM, respectively. In addition, the EC50 in test [3] came out at 1240 nM.

On to `N#Cc1ccc(CNC(=O)c2ccc3n(c2=O)CCN(CCS(=O)(=O)C2CC2)C3=O)cc1` [Example 194], for which the values for the IC50 in test [1] and in test [2] were 103 nM and 855 nM, respectively. In test [3], the EC50 amounted to 4220 nM.

With `N#Cc1ccc(CNC(=O)c2ccc3n(c2=O)CCN(CCS(=O)(=O)C2CC2)C3=O)cc1F` [Example 195], the IC50 in test [1] is 67.1 nM; in test [2], 649 nM. For the same compound, the concentration for a half-maximal effect (EC50) in test [3] worked out at 2610 nM.
